What all share (assay type): cell-based
Holding throughout (details): for nH: Hill coefficient

In one test the target is T1, α2β2γ2S GABAA receptors (Homo sapiens, UniProt P47869+P47870).
T1 construct: expressed in transfected cells; host or cells: Xenopus laevis oocytes injected with cRNA (pCMV cDNA templates)
Nature of the test: Two-microelectrode voltage clamp, IGABA modulation, α2β2γ2S. The protocol:
(§1) Preparation of stage V–VI oocytes from X. laevis and synthesis of capped runoff poly(A) cRNA transcripts from linearized cDNA templates (pCMV vector) was performed as previously described.[49] […] Follicle membranes from isolated oocytes were enzymatically digested with 2 mg/mL collagenase (type 1A, Sigma–Aldrich, Vienna, Austria).
(§2) Selected oocytes were injected with 10–50 nL of DEPC-treated water (diethyl pyrocarbonate, Sigma, Vienna, Austria) containing the different GABAA cRNAs at a concentration of approximately 300–3000 pg·nL^–1·subunit^–1.
(§3) To ensure expression of the γ2S subunit in the case of α1/2/3/5β2/3γ2S receptors, cRNAs were mixed in a ratio of 1:1:10. […] The amount of cRNAs was determined by means of a NanoDrop ND-1000 (Kisker-Biotech, Steinfurt, Germany).
(§4) Oocytes were stored at +18 °C in modified ND96 solution (90 mM NaCl, 1 mM CaCl2, 1 mM KCl, 1 mM MgCl2·6H2O, and 5 mM HEPES [4-(2-hydroxyethyl)-1-piperazineethanesulfonic acid], pH 7.4, all from Sigma–Aldrich, Vienna, Austria).
(§5) Chloride currents through GABAA receptors (IGABA) were measured at room temperature (+21 ± 1 °C) by means of a two-microelectrode voltage clamp technique making use of a Turbo TEC-05X amplifier (npi electronic, Tamm, Germany). IGABA were elicited at a holding potential of –70 mV. Data acquisition was carried out by means of an Axon Digidata 1322A interface using pCLAMP v.10 (Molecular Devices, Sunnyvale, CA). The modified ND96 solution was used as bath solution.
(§6) GABA and the studied derivatives were applied by means of the ScreeningTool (npi electronic, Tamm, Germany) fast perfusion system as described previously.[50] To elicit IGABA, the chamber was perfused with 120 μL of GABA- or compound-containing solution at a volume rate of 300 μL/s.[34] Care was taken to account for possible slow recovery from increasing levels of desensitization in the presence of high drug concentrations. The duration of washout periods was therefore extended from 1.5 min (<10 μM compounds) to 30 min (≥10 μM compounds). Oocytes with maximal current amplitudes >3 μA were discarded to exclude voltage clamp errors.
(§7) Stimulation of chloride currents by modulators of the GABAA receptor was measured at a GABA concentration eliciting between 3% and 7% of the maximal current amplitude (EC3–7). The GABA EC3–7 was determined for each oocyte individually. Enhancement of the chloride current was defined as (IGABA+compd/IGABA) – 1, where IGABA+compd is the current response in the presence of a given compound and IGABA is the control GABA current. IGABA-max reflects the maximal IGABA enhancement. […] Statistical significance was calculated by paired Student t-test with a confidence interval of <0.05.

In the next test the target is T2, α1β3γ2S GABAA receptors (Homo sapiens, UniProt P14867+P28472).
T2 construct: expressed in transfected cells; host or cells: Xenopus laevis oocytes injected with cRNA (pCMV cDNA templates)
T2 sequence (P14867 28-456): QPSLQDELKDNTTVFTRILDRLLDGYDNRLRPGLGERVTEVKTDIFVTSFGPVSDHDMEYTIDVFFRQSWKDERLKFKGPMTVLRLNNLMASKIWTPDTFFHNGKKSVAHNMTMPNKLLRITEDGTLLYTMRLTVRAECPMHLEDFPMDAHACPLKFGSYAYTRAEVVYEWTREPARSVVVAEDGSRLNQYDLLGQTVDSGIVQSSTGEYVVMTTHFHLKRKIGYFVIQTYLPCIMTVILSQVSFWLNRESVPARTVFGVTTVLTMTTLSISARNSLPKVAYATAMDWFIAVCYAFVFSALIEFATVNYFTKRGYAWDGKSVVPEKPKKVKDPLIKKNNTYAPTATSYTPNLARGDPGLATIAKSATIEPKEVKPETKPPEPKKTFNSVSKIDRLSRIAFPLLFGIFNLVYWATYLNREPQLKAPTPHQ
T2 sequence (P28472 26-473): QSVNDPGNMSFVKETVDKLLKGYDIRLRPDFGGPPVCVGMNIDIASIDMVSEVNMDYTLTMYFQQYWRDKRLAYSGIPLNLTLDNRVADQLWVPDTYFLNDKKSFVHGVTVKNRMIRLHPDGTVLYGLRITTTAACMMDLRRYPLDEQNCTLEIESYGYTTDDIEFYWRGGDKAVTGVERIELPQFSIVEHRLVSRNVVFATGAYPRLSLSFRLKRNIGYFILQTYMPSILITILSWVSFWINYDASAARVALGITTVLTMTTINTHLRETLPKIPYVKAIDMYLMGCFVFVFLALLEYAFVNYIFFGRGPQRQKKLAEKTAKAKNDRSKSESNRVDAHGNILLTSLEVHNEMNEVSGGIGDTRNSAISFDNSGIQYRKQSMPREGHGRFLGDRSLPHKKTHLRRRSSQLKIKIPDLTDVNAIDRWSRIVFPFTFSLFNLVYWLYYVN
T2 sequence (P18507 40-467 isoform P18507-1 partner limits assumed): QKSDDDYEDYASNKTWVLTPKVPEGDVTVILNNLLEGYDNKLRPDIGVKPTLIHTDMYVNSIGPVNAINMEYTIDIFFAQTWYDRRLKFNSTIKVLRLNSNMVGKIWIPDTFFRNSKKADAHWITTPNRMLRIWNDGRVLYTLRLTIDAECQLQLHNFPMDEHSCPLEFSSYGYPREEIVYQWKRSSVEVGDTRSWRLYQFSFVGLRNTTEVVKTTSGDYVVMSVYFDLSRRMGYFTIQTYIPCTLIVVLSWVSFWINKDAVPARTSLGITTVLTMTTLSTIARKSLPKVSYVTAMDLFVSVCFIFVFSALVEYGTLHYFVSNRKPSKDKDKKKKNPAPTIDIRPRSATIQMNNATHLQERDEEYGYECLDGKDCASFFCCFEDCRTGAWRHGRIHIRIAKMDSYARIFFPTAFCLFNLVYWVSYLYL
Nature of the test: Two-microelectrode voltage clamp, IGABA modulation, α1β3γ2S. As for the experimental part:
Preparation of stage V–VI oocytes from X. laevis and synthesis of capped runoff poly(A) cRNA transcripts from linearized cDNA templates (pCMV vector) was performed as previously described.[49] Female X. laevis frogs (Nasco) were anesthetized by 15 min incubation in a 0.2% MS-222 (methanesulfonate salt of 3-aminobenzoic acid ethyl ester; Sigma–Aldrich, Vienna, Austria) solution before removal of parts of the ovaries. Follicle membranes from isolated oocytes were enzymatically digested with 2 mg/mL collagenase (type 1A, Sigma–Aldrich, Vienna, Austria).
as §2
To ensure expression of the γ2S subunit in the case of α1/2/3/5β2/3γ2S receptors, cRNAs were mixed in a ratio of 1:1:10. For expression of receptors composed of α4β2γ2S and α1β1γ2S, cRNAS were mixed in a ratio of 3:1:10. The amount of cRNAs was determined by means of a NanoDrop ND-1000 (Kisker-Biotech, Steinfurt, Germany).
as §4
Chloride currents through GABAA receptors (IGABA) were measured at room temperature (+21 ± 1 °C) by means of a two-microelectrode voltage clamp technique making use of a Turbo TEC-05X amplifier (npi electronic, Tamm, Germany). IGABA were elicited at a holding potential of –70 mV. Data acquisition was carried out by means of an Axon Digidata 1322A interface using pCLAMP v.10 (Molecular Devices, Sunnyvale, CA). The modified ND96 solution was used as bath solution. Microelectrodes were filled with 2 M KCl and had resistances between 1 and 3 MΩ.
GABA and the studied derivatives were applied by means of the ScreeningTool (npi electronic, Tamm, Germany) fast perfusion system as described previously.[50] To elicit IGABA, the chamber was perfused with 120 μL of GABA- or compound-containing solution at a volume rate of 300 μL/s.[34] Care was taken to account for possible slow recovery from increasing levels of desensitization in the presence of high drug concentrations. The duration of washout periods was therefore extended from 1.5 min (<10 μM compounds) to 30 min (≥10 μM compounds). […]
Stimulation of chloride currents by modulators of the GABAA receptor was measured at a GABA concentration eliciting between 3% and 7% of the maximal current amplitude (EC3–7). The GABA EC3–7 was determined for each oocyte individually. […] Statistical significance was calculated by paired Student t-test with a confidence interval of <0.05.

The target in another test is T3, α3β2γ2S GABAA receptors (Homo sapiens, UniProt P34903+P47870).
T3 construct: expressed in transfected cells; host or cells: Xenopus laevis oocytes injected with cRNA (pCMV cDNA templates)
T3 sequence (P34903 29-492): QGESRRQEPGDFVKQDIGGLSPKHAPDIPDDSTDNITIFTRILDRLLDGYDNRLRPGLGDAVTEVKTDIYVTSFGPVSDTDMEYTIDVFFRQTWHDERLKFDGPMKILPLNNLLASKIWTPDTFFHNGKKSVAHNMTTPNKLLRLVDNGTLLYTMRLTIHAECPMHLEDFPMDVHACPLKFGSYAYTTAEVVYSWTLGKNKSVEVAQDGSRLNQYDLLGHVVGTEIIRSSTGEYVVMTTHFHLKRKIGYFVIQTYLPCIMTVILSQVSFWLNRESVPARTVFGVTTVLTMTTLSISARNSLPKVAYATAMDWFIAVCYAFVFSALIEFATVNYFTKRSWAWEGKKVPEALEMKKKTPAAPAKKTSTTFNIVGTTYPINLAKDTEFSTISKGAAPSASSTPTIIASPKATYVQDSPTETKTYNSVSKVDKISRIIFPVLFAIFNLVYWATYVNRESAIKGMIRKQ
T3 sequence (P47870 26-512): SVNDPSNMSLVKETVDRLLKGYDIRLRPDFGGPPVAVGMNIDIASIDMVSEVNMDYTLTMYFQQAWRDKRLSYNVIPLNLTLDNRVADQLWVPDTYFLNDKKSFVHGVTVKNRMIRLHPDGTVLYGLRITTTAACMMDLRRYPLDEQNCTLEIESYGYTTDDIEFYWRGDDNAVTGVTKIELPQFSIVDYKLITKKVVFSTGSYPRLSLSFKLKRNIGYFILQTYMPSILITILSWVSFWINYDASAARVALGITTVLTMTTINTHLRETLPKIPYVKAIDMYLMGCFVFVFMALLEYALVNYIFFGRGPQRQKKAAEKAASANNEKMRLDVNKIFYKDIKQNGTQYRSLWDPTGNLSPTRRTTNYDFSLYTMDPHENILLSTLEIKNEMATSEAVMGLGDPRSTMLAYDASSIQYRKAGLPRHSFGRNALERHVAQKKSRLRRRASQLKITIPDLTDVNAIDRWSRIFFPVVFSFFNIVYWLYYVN
T3 sequence (P18507 40-467 isoform P18507-1 partner limits assumed): as the sequence (P18507 40-467 isoform P18507-1 partner limits assumed) above
Description: Two-microelectrode voltage clamp, IGABA modulation, α3β2γ2S. As for the experimental part: as §1, §2, §3, §4, §5, §6, §7

The next test deals with T4, α1β1γ2S GABAA receptors (Homo sapiens, UniProt P14867+P18505).
T4 construct: expressed in transfected cells; host or cells: Xenopus laevis oocytes injected with cRNA (pCMV cDNA templates)
T4 sequence (P14867 28-456): as the sequence (P14867 28-456) above
T4 sequence (P18505 26-474): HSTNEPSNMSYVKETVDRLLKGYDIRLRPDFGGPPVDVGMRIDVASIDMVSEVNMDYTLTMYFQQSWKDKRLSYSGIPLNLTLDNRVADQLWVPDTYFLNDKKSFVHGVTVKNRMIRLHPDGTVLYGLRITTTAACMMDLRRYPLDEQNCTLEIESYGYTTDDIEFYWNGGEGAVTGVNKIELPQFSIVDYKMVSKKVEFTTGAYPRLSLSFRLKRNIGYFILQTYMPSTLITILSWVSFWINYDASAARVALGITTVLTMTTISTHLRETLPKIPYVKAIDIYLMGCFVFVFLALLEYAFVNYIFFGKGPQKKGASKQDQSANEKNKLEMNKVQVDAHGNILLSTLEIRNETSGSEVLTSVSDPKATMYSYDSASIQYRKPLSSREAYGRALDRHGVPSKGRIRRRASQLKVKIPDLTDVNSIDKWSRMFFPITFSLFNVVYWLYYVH
T4 sequence (P18507 40-467 isoform P18507-1 partner limits assumed): as the sequence (P18507 40-467 isoform P18507-1 partner limits assumed) above
Nature of the test: Two-microelectrode voltage clamp, IGABA modulation, α1β1γ2S. As for the experimental part: as §1, §2, §3, §4, §5, §6, §7

Molecules are shown by their SMILES.

What is called EC50 is the concentration that produces a half-maximal response. A high value points to weaker potency.

T1 sequence (P47869 29-451): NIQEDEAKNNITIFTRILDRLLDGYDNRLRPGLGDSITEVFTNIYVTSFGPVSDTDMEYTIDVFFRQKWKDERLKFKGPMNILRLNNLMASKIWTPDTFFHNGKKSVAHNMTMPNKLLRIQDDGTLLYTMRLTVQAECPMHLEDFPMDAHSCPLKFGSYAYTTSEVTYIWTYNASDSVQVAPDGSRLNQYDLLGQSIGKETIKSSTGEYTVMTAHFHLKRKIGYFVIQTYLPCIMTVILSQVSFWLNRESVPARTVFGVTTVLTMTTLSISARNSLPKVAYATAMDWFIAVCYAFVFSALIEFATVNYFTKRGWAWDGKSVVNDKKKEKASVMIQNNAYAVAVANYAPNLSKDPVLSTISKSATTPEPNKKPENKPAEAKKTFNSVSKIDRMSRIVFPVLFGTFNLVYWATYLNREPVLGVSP
T1 sequence (P47870 26-512): as the sequence (P47870 26-512) above
T1 sequence (P18507 40-467 isoform P18507-1 partner limits assumed): as the sequence (P18507 40-467 isoform P18507-1 partner limits assumed) above

With `CCCN(CCC)C(=O)/C=C/C=C/c1ccc2c(c1)OCO2` [Compound 23, (2E,4E)-5-(1,3-benzodioxol-5-yl)-N,N-dipropyl-2,4-pentadienamide], the EC50 came to 26.4 ± 6.6 µM on α2β2γ2S GABAA receptors, 34.7 ± 5.7 µM at α1β3γ2S GABAA receptors, 36.6 ± 7.2 µM on α3β2γ2S GABAA receptors and 57.5 ± 7.3 µM at α1β1γ2S GABAA receptors. The nH on α2β2γ2S GABAA receptors is 1.9 ± 0.4; at α1β3γ2S GABAA receptors, 1.9 ± 0.2; on α3β2γ2S GABAA receptors, 1.9 ± 0.3; at α1β1γ2S GABAA receptors it was 1.8 ± 0.1.

In the case of `CCCCN(CCCC)C(=O)/C=C/C=C/c1ccc2c(c1)OCO2` [Compound 25, (2E,4E)-5-(1,3-Benzodioxol-5-yl)-N,N-dibutyl-2,4-pentadienamide], the EC50 on α2β2γ2S GABAA receptors was 14.8 ± 1.9 µM; at α1β3γ2S GABAA receptors, 29.5 ± 2.9 µM; on α3β2γ2S GABAA receptors, 16 ± 2.7 µM; at α1β1γ2S GABAA receptors, 15.9 ± 4.9 µM. The nH came out at 2.2 ± 0.3 on α2β2γ2S GABAA receptors, 1.5 ± 0.1 on α1β3γ2S GABAA receptors, 1.8 ± 0.1 at α3β2γ2S GABAA receptors and 1.3 ± 0.6 at α1β1γ2S GABAA receptors.

(Values after paper PMC4106271 (Journal of Medicinal Chemistry, 2014).)
